Results published in patent US12599673B2, “Techniques for enhancing the selectivity and efficacy of antimicrobial and anticancer polymer agents” (International Business Machines Corporation, priority 2018, dated 2026).

Columns and labels:
[1] = tested on: THP-1 cells (a human monocytic cell line); test: Biocompatibility/toxicity with THP-1 cells (cell viability); assay type: cell-based
Protocol: FIG. 17 presents a Graph 1700 illustrating the biocompatibility/toxicity of various therapeutic polymers and coacervate complexes with mammalian cells in accordance with various embodiments described herein. […] In accordance with the data reflected in Graph 1700, different dosages (e.g., from 2 ppm to 1000 ppm in μg/mL) of the respective polymers and coacervate complexes were incubated with the THP-1 cells for 24 hours at 37° C. The polymers tested include Polymer A, Polymer B, Polymer C, Polymer D, and Polymer E. The coacervates tested include Complex B, Complex C, Complex D, and Complex E. The percent cell viability detected at concentrations less than 63 ppm were substantially the same as those shown for 63 ppm, and thus are not depicted to minimize the complexity of the visualization.

P. aeruginosa = test: Minimal inhibitory concentration toward P. aeruginosa; assay type: cell-based, Pseudomonas aeruginosa
Protocol: FIG. 15A presents a Graph 1500 illustrating the antimicrobial selectivity and efficacy of example therapeutic polymers and coacervate complexes against P. aeruginosa in accordance with various embodiments described herein. […] The tested efficacy is based on their respective minimal inhibitory concentrations (MICs) toward P. aeruginosa. […] The commercial standard antibiotic Polymyxin B sulfate (PolyB) and Complex X were also tested for selectivity and efficacy/toxicity for comparison. Complex X is used herein to refer to a coacervate complex formed with Polymer A in combination with PolyB (as opposed to Polymer A and the disclosed therapeutic polyguanidinium based Polymers). FIG. 15B provides a corresponding Table 1501 for Graph 1500. In addition to the MIC and HC50 values reflected in Graph 1500, Table 1501 also identifies the […] (SI) of the respective polymers and corresponding coacervate complexes. Repetitive description of like elements employed in respective embodiments is omitted for sake of brevity.

[2] = In vivo toxicity in mice (LD50)
Protocol: FIGS. 21A and 21B provides tables illustrating the in vivo toxicity and antimicrobial efficacy of coacervate complexes in accordance with various embodiments described herein. […] The data presented in both tables 2101 and 2102 reflect testing using a mouse model.
With reference to FIG. 21 and Table 2101 the in vivo toxicity of different antimicrobials was measured as a function of the lethal dose 50 (LD50) values (which is the amount of antimicrobial that kills 50% of the tested population). […] In fact, the LD50 level of Complex E is so high that is cannot be measured. […] This in-vivo toxicity data is further commensurate with the in vitro toxicity data and in vitro hemolysis data discussed above.

Polymyxin B sulfate [PolyB]
percent cell viability THP-1 ([1]; 1000 ppm, 24 hours at 37° C): below 20% | cell viability THP-1 ([1]; about 250 ppm): 50% | cell viability THP-1 ([1]; about 500 ppm): ~30% | MIC toward P. aeruginosa (P. aeruginosa): 0.5 µg/mL | LD50 [2]: 5.4 mg/kg
